The test has as its target HCV-NS5BΔ21 RdRp genotype 1b (strain J4) (Hepatitis C virus genotype 1b, UniProt O92972). Put plainly: biochemical. On the set-up: His6 (N); made in house; host or cells: Escherichia coli C41(DE3). The conditions noted are these: 20 μM compound; for Slope of fluorescence increase: no treatment control slope 62.0. As to the method: The HCV RdRps (NS5B protein) from reference strains H77 (genotype 1a), J4 (genotype 1b) and JFH1 (genotype 2a), truncated of their 21 C-terminal amino acids to ensure solubility (NS5BΔ21) and carrying a hexahistidine tag (His6-Tag) at their N-terminus, were expressed in Escherichia coli C41(DE3) and purified as previously described ([20]). Briefly, cultures were grown at 37°C for ∼1 h and induced with 1 mM isopropyl β-D-thiogalactoside for 4 h at 37°C. […] After sonication, cell lysates were clarified by centrifugation, and chromatography was performed on a Ni-NTA column (Qiagen, Hilden, Germany). The bound protein was eluted in 1 ml fractions with a buffer containing 50 mM NaH2PO4 (pH 8.0), 500 mM NaCl and 250 mM imidazole. NS5BΔ21-enriched fractions were selected using a Bradford colorimetric assay, and HCV-NS5BΔ21 purity was determined by Coomassie-stained sodium dodecyl sulfate-polyacrylamide electrophoresis gel (SDS-PAGE) analysis. Purified NS5BΔ21 fractions were pooled and dialyzed against a buffer containing 5 mM Tris (pH 7.5), 0.2 M sodium acetate, 1 mM DTT, 1 mM ethylenediaminetetraacetic acid (EDTA) and 10% glycerol.
The cell-free HCV-NS5BΔ21 polymerase assay is based on the real-time measurement of the amount of double-stranded RNA synthesized in the presence of HCV-NS5BΔ21, a homopolymeric RNA template (poly U or poly C, GE Healthcare, Chalfont St. Giles, UK) and the corresponding nucleotide, by means of an intercalating agent (SYBR® Green, Applied Biosystems, Carlsbad, CA, USA), as previously described ([20]). For screening, HCV-NS5BΔ21 polymerase activity was quantified by the slope of fluorescence increase in the presence of 20 μM of the tested flavonoid compounds and compared with the control reaction containing no inhibitor. […] The reported values are the average of three independent measurements performed in duplicate. For kinetics analysis, initial reaction velocities were measured at different nucleotide (adenosine triphosphate (ATP) or GTP) and studied compound concentrations, without pre-incubation and in the presence of 50 μg/ml of the corresponding homopolymeric RNA template (Poly U and Poly C, respectively). The concentration of NS5BΔ21 (J4 strain, genotype 1b) in the reaction was 0.1 mg/ml. Kinetics data were graphically represented as double reciprocal plots. Data points were fitted by linear regression to identify the inhibition mode of the compound.

Consider 39 compounds from PMC4132742, “Inhibition of RNA binding to hepatitis C virus RNA-dependent RNA polymerase: a new mechanism for antiviral intervention” (Nucleic Acids Research, 2014).

The term inhibition denotes the relative decrease from the control value, in per cent. Higher therefore signals a response far below the control. Turning to `O=c1c(O)c(-c2ccccc2)oc2cc(O)ccc12` [7-hydroxyflavonol], the inhibition at 20 µM turned out to be 71.3% and the “Slope of fluorescence increase” value came to 17.8.
In the case of `O=c1c(O)c(-c2ccc(O)cc2)oc2cc(O)cc(O)c12` [Kaempferol], the inhibition at 20 µM came out at 74.7% and the “Slope of fluorescence increase” value came to 15.7.
For the compound `O=c1c(-c2ccc(O)cc2)coc2cc(O)cc(O)c12` [Genistein], 20 µM produced 13.1% inhibition and the “Slope of fluorescence increase” value is listed as 53.9.
For `O=C1C[C@@H](c2ccc(O)cc2)Oc2cc(O)cc(O)c21` [Naringenin], testing at 20 µM gave an inhibition of 6% and the “Slope of fluorescence increase” value was found to be 58.3.
Regarding `O=c1c(O[C@@H]2O[C@H](CO)[C@@H](O)[C@H](O)[C@H]2O)c(-c2ccc(O)c(O)c2)oc2cc(O)cc(O)c12` [Quercetin-3-O glucopyranoside], the “% HCV-NS5BΔ21 inhibition” value is 25.9% and the “Slope of fluorescence increase” value is recorded as 46.0.
As for `O=c1cc(-c2ccccc2)oc2cccc(O)c12` [5-hydroxyflavone], the inhibition at 20 µM was found to be 14.5% and the “Slope of fluorescence increase” value is recorded as 53.0.
On to `O=c1cc(-c2ccc(O)c(O)c2)oc2c(O)c(O)ccc12` [3’.4’.7.8-Tetrahydroxyflavone], for which the “% HCV-NS5BΔ21 inhibition” value is 30.9% and the “Slope of fluorescence increase” value amounted to 42.9.
On to `O=c1cc(-c2ccccc2)oc2cc(O)c(O)cc12` [6.7 Dihydroxyflavone], for which the “% HCV-NS5BΔ21 inhibition” value was 37.4% and the “Slope of fluorescence increase” value stood at 38.8.
As for `O=c1c(O)c(-c2ccc(O)c(O)c2)oc2cc(O[C@@H]3O[C@H](CO)[C@@H](O)[C@H](O)[C@H]3O)c(O)c(O)c12` [Quercetagetin-7-O glucoside], the “% HCV-NS5BΔ21 inhibition” value came to 42.5% and the “Slope of fluorescence increase” value is given as 35.7.
Regarding `O=c1cc(-c2ccccc2)oc2cc(O)c(O)c(O)c12` [Baicalein], the inhibition at 20 µM was 61.8% and the “Slope of fluorescence increase” value is reported as 23.7.
Consider `COc1cc(OC)c2c(=O)c(OC)c(-c3ccc(OC)c(OC)c3)oc2c1` [Quercetin 3.5.7.3’.4’ pentamethylether], for which the “% HCV-NS5BΔ21 inhibition” value came out at 4.0% and the “Slope of fluorescence increase” value stood at 59.6.
Take `O=c1c(O)c(-c2ccc(O)cc2O)oc2cc(O)cc(O)c12` [Morin]: 20 µM produced 69.3% inhibition and the “Slope of fluorescence increase” value is reported as 19.0.
For the compound `O=c1c(O)c(-c2cc(O)c(O)c(O)c2)oc2cc(O)cc(O)c12` [Myricetin], the inhibition at 20 µM was found to be 79.2% and the “Slope of fluorescence increase” value was determined as 12.9.
Turning to `COc1cc(O)c2c(=O)c(OC)c(-c3ccc(OC)c(OC)c3)oc2c1` [Quercetin 3.7.3’.4’ tétramethylether], the “% HCV-NS5BΔ21 inhibition” value is listed as 14.5% and the “Slope of fluorescence increase” value is 53.0.
With `O=C1CC(c2ccc(O)cc2)Oc2ccccc21` (stereo not drawn) [4’-Hydroxyflavanone], at 20 µM the inhibition was 9.3% and the “Slope of fluorescence increase” value worked out at 56.3.
Take `O=c1cc(-c2ccccc2)oc2ccc(O)cc12` [6-Hydroxyflavone]: the inhibition at 20 µM is 18.5% and the “Slope of fluorescence increase” value was found to be 50.6.
In the case of `O=C1CC(c2ccccc2)Oc2ccccc21` (stereo not drawn) [Flavanone], the inhibition at 20 µM amounted to 7.5% and the “Slope of fluorescence increase” value was found to be 57.4.
As to `O=C1CC(c2ccccc2)Oc2ccc(O)cc21` (stereo not drawn) [6-Hydroxyflavanone], 20 µM produced 4.1% inhibition and the “Slope of fluorescence increase” value was found to be 59.5.
In the case of `O=C1C[C@@H](c2ccc(O)cc2)Oc2cc(O)ccc21` [Liquiritigenin], the “% HCV-NS5BΔ21 inhibition” value was found to be 6.1% and the “Slope of fluorescence increase” value turned out to be 58.3.
As to `O=c1cc(-c2ccccc2)oc2c(O)c(O)cc(O)c12` [5.7.8-Trihydroxyflavone], the “% HCV-NS5BΔ21 inhibition” value was found to be 47.4% and the “Slope of fluorescence increase” value is given as 32.6.
For the compound `O=c1cc(-c2ccccc2)oc2ccccc12` [Flavone], the inhibition at 20 µM turned out to be 13.1% and the “Slope of fluorescence increase” value stood at 53.9.
Consider `O=c1cc(-c2ccccc2)oc2c(O)c(O)ccc12` [7.8 Dihydroxyflavone], for which the “% HCV-NS5BΔ21 inhibition” value amounted to 30.8% and the “Slope of fluorescence increase” value is reported as 42.9.
Take `O=c1cc(-c2cc(O)c(O)c(O)c2)oc2cc(O)cc(O)c12` [Tricetin]: at 20 µM the inhibition was 69.5% and the “Slope of fluorescence increase” value was 18.9.
`O=c1cc(-c2ccc(O)c(O)c2)oc2cc(O)cc(O)c12` [Luteolin]: 20 µM produced 81.7% inhibition and the “Slope of fluorescence increase” value is recorded as 11.4.
With `O=C1c2ccc(O)cc2O[C@H](c2ccc(O)c(O)c2)[C@H]1O` [Fustin], testing at 20 µM gave an inhibition of 14.5% and the “Slope of fluorescence increase” value amounted to 53.0.
As to `Oc1cc(O)c2c(c1)O[C@H](c1ccc(O)c(O)c1)[C@@H](O)C2` (racemic) [DL-Catechin], the “% HCV-NS5BΔ21 inhibition” value amounted to 17.7% and the “Slope of fluorescence increase” value is 51.1.
Take `O=c1c(O)c(-c2ccccc2)oc2cc(O)cc(O)c12` [Galangin]: the inhibition at 20 µM is 80.8% and the “Slope of fluorescence increase” value was 11.9.
Take `COc1cc(-c2oc3cc(O)cc(O)c3c(=O)c2O)ccc1O` [Isorhamnetin]: the inhibition at 20 µM stood at 77.6% and the “Slope of fluorescence increase” value came out at 13.9.
The corresponding values for `O=c1c(O)c(-c2ccc(O)c(O)c2)oc2cc(O)cc(O)c12` [Quercetin] are 83.7% and 10.1.
Consider `O=c1c(O[C@@H]2O[C@H](CO)[C@H](O)[C@H](O)[C@H]2O)c(-c2ccc(O)c(O)c2)oc2cc(O)cc(O)c12` [Hyperoside], for which at 20 µM the inhibition was 28.1% and the “Slope of fluorescence increase” value came out at 44.6.
`O=c1c(O)c(-c2ccc(O)c(O)c2)oc2c(O)c(O)cc(O)c12` [Gossypetin]: the inhibition at 20 µM was 74.6% and the “Slope of fluorescence increase” value is reported as 15.8.
With `O=C1c2ccc(O)cc2OC(c2cc(O)c(O)c(O)c2)C1O` (stereo in doubt) [Dihydrorobinetin], the “% HCV-NS5BΔ21 inhibition” value amounted to 11.0% and the “Slope of fluorescence increase” value turned out to be 55.2.
Turning to `O=c1cc(-c2ccc(O)cc2)oc2cc(O)cc(O)c12` [Apigenin], at 20 µM the inhibition was 62.5% and the “Slope of fluorescence increase” value was determined as 23.3.
As for `O=c1c(O)c(-c2ccc(O)cc2)oc2cc(O)ccc12` [5-Deoxykampferol], the “Slope of fluorescence increase” value is 22.4. The “% HCV-NS5BΔ21 inhibition” value (20 µM) turned out to be 63.9%.
Turning to `O=c1c(O)c(-c2ccc(O)c(O)c2)oc2cc(O)ccc12` [Fisetin], the inhibition at 20 µM was determined as 65.8% and the “Slope of fluorescence increase” value is 21.2.
Turning to `O=c1cc(-c2ccc(O)cc2)oc2cc(O)c(O)c(O)c12` [Scutellarein], the inhibition at 20 µM came out at 67.4% and the “Slope of fluorescence increase” value came to 20.2.
Consider `O=c1cc(-c2ccc(O)cc2)oc2cc(O)ccc12` [7.4’-Dihydroxyflavone], for which the “% HCV-NS5BΔ21 inhibition” value is reported as 25.7% and the “Slope of fluorescence increase” value came to 46.1.
For the compound `O=c1c(O)c(-c2ccccc2O)oc2cc(O)cc(O)c12` [Datiscetin], the inhibition at 20 µM came out at 70.5% and the “Slope of fluorescence increase” value was determined as 18.3.
As to `O=c1cc(-c2ccc(O)c(O)c2)oc2ccccc12` [3’.4’-Dihydroxyflavone], the “% HCV-NS5BΔ21 inhibition” value came out at 45.4% and the “Slope of fluorescence increase” value is reported as 33.9.
